{
  "source": "patent EP4703362A1",
  "about": "(Chengdu Sibeibo Pharmaceutical Technology Co., Ltd, priority 2023, dated 2024)",
  "data": [
    {"molecular_target": "T1, CGRP receptor complex (Homo sapiens, UniProt O60894+Q16602)", "T1 construct": "host or cells: SK-N-MC", "T1 sequence (Q16602 23-461)": "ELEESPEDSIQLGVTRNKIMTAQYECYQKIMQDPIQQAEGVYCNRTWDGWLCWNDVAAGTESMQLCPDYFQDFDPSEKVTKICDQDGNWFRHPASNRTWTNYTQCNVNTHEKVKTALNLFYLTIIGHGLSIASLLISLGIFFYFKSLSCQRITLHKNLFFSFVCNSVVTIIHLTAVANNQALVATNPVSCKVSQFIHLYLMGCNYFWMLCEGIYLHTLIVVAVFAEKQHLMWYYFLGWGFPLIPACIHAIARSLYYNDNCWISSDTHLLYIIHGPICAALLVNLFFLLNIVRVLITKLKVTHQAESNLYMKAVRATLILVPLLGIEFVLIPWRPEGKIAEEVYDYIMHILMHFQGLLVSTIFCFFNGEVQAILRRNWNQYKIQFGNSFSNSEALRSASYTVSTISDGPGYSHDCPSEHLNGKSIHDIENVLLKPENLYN", "T1 sequence (O60894 27-148)": "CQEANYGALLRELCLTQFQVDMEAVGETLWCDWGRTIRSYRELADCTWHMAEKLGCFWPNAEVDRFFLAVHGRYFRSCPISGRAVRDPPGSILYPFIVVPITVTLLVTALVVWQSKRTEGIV", "assay": "determination of cell functional antagonism - cAMP determination", "assay_type": "cell-based", "conditions": "not given", "description": "(§1) 1.Experimental principle A CGRP receptor complex was coupled with Gs in G protein, the combination of CGRP and CGRP receptor complex led to Gs activation, and cAMP (3',5'-cyclic adenosine monophosphate) was produced. 2.Experimental purpose The ability of the compound of the present invention to inhibit CGRP-stimulated cAMP formation in SK-N-MC cells was determined. 3.Experimental materials 3.1Experimental cell line: SK-N-MC (neuroepithelioma cells) from National Science and Technology Infrastructure - Biomedical Materials and Cell Resources. 3.2Reagents and consumables\n(§2) 4.Experimental steps • 4.1Cell preparation: The SK-N-MC cells were resuscitated and cultured in advance, and a cell confluence degree should be 70%-80% before use. • 4.2A sample dilution, a tested compound and α-CGRP (human) were prepared. • 4.3Cell seeding and drug effect: The SK-N-MC cells were digested, centrifuged, then resuspended with the sample dilution, and inoculated into a 384-well plate. Each well was added with the α-CGRP (human) and the tested compound respectively, and blown and mixed evenly. The well plate was adhered with a sealing film, and placed on an enzyme-labeled incubator to incubate at 25°C. • 4.4cAMP determination: carried out according to LANCE Ultra cAMP Kit specification Eu-cAMP tracer and ULight-anti-cAMP working solutions were prepared in the dark, respectively added into the well plate, and blown and mixed evenly.", "units": {"IC50": "pM"}, "values": [
      {"smiles": "Cc1cc(C[C@@H](NC(=O)N2CCC(c3cc4c([nH]c3=O)SCC4)CC2)C(=O)N2CC3CC2CC3N2CCCCC2)cc2cn[nH]c12", "note": "(stereo partly drawn) [Example 36]", "IC50": 4610},
      {"smiles": "Cc1cc(C[C@@H](NC(=O)N2CCC(c3cc4c([nH]c3=O)[S+]([O-])CCC4)CC2)C(=O)N2CCN(C3CCN(C)CC3)CC2)cc2cn[nH]c12", "note": "(stereo partly drawn) [Example 32, N-((R)-3-(7-methyl-1H-indazole-5-yl)-1-(4-(1-methylpiperidine-4-yl)piperazine-1-yl)-1-oxopropan-2-yl)-4-(1-oxidation-7-oxo-3,4,7,8-tetrahydro-2H-thiopyrano[2,3-b]pyridine-6-yl)pipe ridine-1-formamide]", "IC50": 290},
      {"smiles": "Cc1cc(C[C@@H](NC(=O)N2CCC(c3cc4c([nH]c3=O)SCC43CC3)CC2)C(=O)N2CCN(C3CCN(C)CC3)CC2)cc2cn[nH]c12", "note": "[Example 33, (R)-N-(3-(7-methyl-1H-indazole-5-yl)-1-(4-(1-methylpiperidine-4-yl)piperazine-1-yl)-1-oxopropan-2-yl)-4-(6'-oxo-6',7'-dihydro-2'H-spiro[cyclopropane-1,3'-thieno][2,3-b]pyridine-5'-yl)piperidine-1-formamide]", "IC50": 370},
      {"smiles": "Cc1cc(C[C@@H](NC(=S)N2CCC(c3cc4c([nH]c3=O)SCCC4)CC2)C(=O)N2CCN(C3CCN(C)CC3)CC2)cc2cn[nH]c12", "note": "[Example 23]", "IC50": 1120},
      {"smiles": "Cc1cc(C[C@@H](NC(=O)N2CCC(c3cc4c([nH]c3=O)CCC4(C)C)CC2)C(=O)N2CCN(C3CCN(C)CC3)CC2)cc2cn[nH]c12", "note": "[Example 7]", "IC50": 6020},
      {"smiles": "Cc1cc(CC(OC(=O)N2CCC(c3cc4c([nH]c3=O)SCCC4)CC2)C(=O)N2CCN(C3CCN(C)CC3)CC2)cc2cn[nH]c12", "note": "(stereo not drawn) [Example 41]", "IC50": 380},
      {"smiles": "Cc1cc(C[C@@H](NC(=O)N2CCC(c3cc4c([nH]c3=O)[S+]([O-])CC4)CC2)C(=O)N2CCN(C3CCN(C)CC3)CC2)cc2cn[nH]c12", "note": "(stereo partly drawn) [Example 35, N-((R)-3-(7-methyl-1H-indazole-5-yl)-1-(4-(1-methylpiperidine-4-yl)piperazine-1-yl)-1-oxopropan-2-yl)-4-(1-oxidation-6-oxo-2,3,6,7-tetrahydrothieno[2,3-b]pyridine-5-yl)piperidine-1-formamide]", "IC50": 690}
    ]},
    {"molecular_target": "T1, CGRP receptor complex", "assay": "determination of cell functional antagonism - cAMP determination", "assay_type": "cell-based", "conditions": "inhibition of CGRP-stimulated cAMP formation in SK-N-MC cells", "description": "as §1, §2", "units": {"IC50": "pM"}, "values": [
      {"smiles": "Cc1cc(C[C@@H](NC(=O)N2CCC(c3cc4c([nH]c3=O)CSCC4)CC2)C(=O)N2CCN(C3CCN(C)CC3)CC2)cc2cn[nH]c12", "note": "[Example 13, (R)-N-(3-(7-methyl-1H-indazole-5-yl)-1-(4-(1-methylpiperidine-4-yl)piperazine-1-yl)-1-oxopropan-2-yl)-4-(2-oxo-2,5,6,8-tetrahydro-1H-thiopyrano[3,4-b]pyridine-3-yl)piperidine-1-for mamide]", "IC50": 1440},
      {"smiles": "Cc1cc(C[C@@H](NC(=O)N2CCN(c3cc4c([nH]c3=O)SCCC4)CC2)C(=O)N2CCN(C3CCN(C)CC3)CC2)cc2cn[nH]c12", "note": "[Example 18, (R)-N-(3-(7-methyl-1H-indazole-5-yl)-1-(4-(1-methylpiperidine-4-yl)piperazine-1-yl)-1-oxopropan-2-yl)-4-(7-oxo-3,4,7,8-tetrahydro-2H-thiopyrano[2,3-b]pyridine-6-yl)piperazine-1-for mamide]", "IC50": 950}
    ]},
    {"molecular_target": "T1, CGRP receptor complex", "assay": "determination of cell functional antagonism - cAMP determination", "assay_type": "cell-based", "conditions": "inhibition of CGRP-stimulated cAMP formation in SK-N-MC cells; read-out: IC50", "description": "as §1, §2", "units": {"IC50": "pM"}, "values": [
      {"smiles": "Cc1cc(C[C@@H](NC(=O)N2CCC(c3cc4c([nH]c3=O)CCCC4)CC2)C(=O)N2CCN(C3CCN(C)CC3)CC2)cc2cn[nH]c12", "note": "[Example 52, (R)-N-(3-(7-methyl-1H-indazole-5-yl)-1-(4-(1-methylpiperidine-4-yl)piperazine-1-yl)-1-oxopropan-2-yl)-4-(2-oxo-1,2,5,6,7,8-hexahydroquinoline-3-yl)piperidine-1-formamide]", "IC50": 1040},
      {"smiles": "Cc1cc(C[C@@H](NC(=O)N2CCC(c3cc4c([nH]c3=O)SCC4)CC2)C(=O)N2CCC(N3CCN(C)CC3)CC2)cc2cn[nH]c12", "note": "[Example 19, (R)-N-(3-(7-methyl-1H-indazole-5-yl)-1-(4-(4-methylpiperazine-1-yl)piperidine-1-yl)-1-oxopropan-2-yl)-4-(6-oxo-2,3,6,7-tetrahydrothieno[2,3-b]pyridine-5-yl)piperidine-1-formamide]", "IC50": 390},
      {"smiles": "Cc1cc(C[C@@H](NC(=O)N2CCC(c3cc4c([nH]c3=O)SCCC4)CC2)C(=O)N2C3CCC2CC(N2CCCCC2)C3)cc2cn[nH]c12", "note": "(stereo partly drawn) [Example 39, N-((2R)-3-(7-methyl-1H-indazole-5-yl)-1-oxo-1-(3-(piperidine-1-yl)-8-azabicyclo[3.2.1]octane-8-yl)propan-2-yl)-4-(7-oxo-3,4,7,8-tetrahydro-2H-thiopyrano[2,3-b]pyridine-6-yl)piperidine-1-formamide]", "IC50": 130},
      {"smiles": "Cc1cc(C[C@@H](NC(=O)N2CCC(c3cc4c([nH]c3=O)SCCC4)CC2)C(=O)N2CCN(C3CCNCC3)CC2)cc2cn[nH]c12", "note": "[Example 49, (R)-N-(3-(7-methyl-1H-indazole-5-yl)-1-oxo-1-(4-(piperidine-4-yl)piperazine-1-yl)propan-2-yl)-4-(7-oxo-3,4,7,8-tetrahydro-2H-thiopyrano[2,3-b]pyridine-6-yl)piperidine-1-formamide]", "IC50": 140},
      {"smiles": "Cc1cc(C[C@@H](NC(=O)N2CCC(c3cc4c([nH]c3=O)SCC4)CC2)C(=O)N2CCC(N3CCCCC3)CC2)cc2cn[nH]c12", "note": "[Example 20, (R)-N-(1-([1,4'-bipiperidine]-1'-yl)-3-(7-methyl-1H-indazole-5-yl)-1-oxopropan-2-yl)-4-(6-oxo-2,3,6,7-tetrahydrothieno[2,3-b]pyridine-5-yl)piperidine-1-formamide]", "IC50": 370},
      {"smiles": "Cc1cc(CC(CC(=O)N2CCC(c3cc4c([nH]c3=O)SCCC4)CC2)C(=O)N2CCN(C3CCN(C)CC3)CC2)cc2cn[nH]c12", "note": "(stereo not drawn) [Example 27, 2-((7-methyl-1H-indazole-5-yl)methyl)-1-(4-(1-methylpiperidine-4-yl)piperazine-1-yl)-4-(4-(7-oxo-3,4,7,8-tetrahydro-2H-thiopyrano[2,3-b]pyridine-6-yl)piperidine-1-yl)butane-1,4-dione]", "IC50": 1240},
      {"smiles": "Cc1cc(C[C@@H](NC(=O)N2CCC(c3cc4c([nH]c3=O)SCCC4)CC2)C(=O)N2CCC(C)(N3CCCCC3)CC2)cc2cn[nH]c12", "note": "[Example 24, (R)-N-(3-(7-methyl-1H-indazole-5-yl)-1-(4'-methyl-[1,4'-bipiperidine]-1'-yl)-1-oxopropan-2-yl)-4-(7-oxo-3,4,7,8-tetrahydro-2H-thiopyrano[2,3-b]pyridine-6-yl)piperidine-1-formamide]", "IC50": 1020},
      {"smiles": "Cc1cc(CC(CC(=O)N2CCC(c3cc4c([nH]c3=O)SCC4)CC2)C(=O)N2CCN(C3CCN(C)CC3)CC2)cc2cn[nH]c12", "note": "(stereo not drawn) [Example 31, 2-((7-methyl-1H-indazole-5-yl)methyl)-1-(4-(1-methylpiperidine-4-yl)piperazine-1-yl)-4-(4-(6-oxo-2,3,6,7-tetrahydrothieno[2,3-b]pyridine-5-yl)piperidine-1-yl)butane-1,4-dione]", "IC50": 2050},
      {"smiles": "Cc1cc(C[C@@H](NC(=O)N2CCC(c3cc4c([nH]c3=O)CCS4)CC2)C(=O)N2CCN(C3CCN(C)CC3)CC2)cc2cn[nH]c12", "note": "[Example 17, (R)-N-(3-(7-methyl-1H-indazole-5-yl)-1-(4-(1-methylpiperidine-4-yl)piperazine-1-yl)-1-oxopropan-2-yl)-4-(5-oxo-2,3,4,5-tetrahydrothieno[3,2-b]pyridine-6-yl)piperidine-1-formamide]", "IC50": 15400},
      {"smiles": "Cc1cc(CC(OC(=O)N2CCC(c3cc4c([nH]c3=O)SCC4)CC2)C(=O)N2CCN(C3CCN(C)CC3)CC2)cc2cn[nH]c12", "note": "(stereo not drawn) [Example 42, 3-(7-methyl-1H-indazole-5-yl)-1-(4-(1-methylpiperidine-4-yl)piperazine-1-yl)-1-oxopropan-2-yl-4-(6-oxo-2,3,6,7-tetrahydrothieno[2,3-b]pyridine-5-yl)piperidine-1-formate]", "IC50": 270},
      {"smiles": "Cc1cc(C[C@@H](NC(=O)N2CCC(c3cc4c([nH]c3=O)SCC4(C)C)CC2)C(=O)N2CCN(C3CCN(C)CC3)CC2)cc2cn[nH]c12", "note": "[Example 2, (R)-4-(3,3-dimethyl-6-oxo-2,3,6,7-tetrahydrothieno[2,3-b]pyridine-5-yl)-N-(3-(7-methyl-1H-indazole-5-yl)-1-(4-(1-methylpiperidine-4-yl)piperazine-1-yl)-1-oxopropan-2-yl)piperidine-1-formamide]", "IC50": 650}
    ]},
    {"molecular_target": "T1, CGRP receptor complex", "assay": "determination of cell functional antagonism - cAMP determination", "assay_type": "cell-based", "conditions": "inhibition of CGRP-stimulated cAMP formation, statement of the conclusion", "description": "as §1, §2", "values": [
      {"smiles": "Cc1cc(C[C@@H](NC(=O)N2CCC(c3cc4c([nH]c3=O)SCC4(C)C)CC2)C(=O)N2CCN(C3CCN(C)CC3)CC2)cc2cn[nH]c12", "note": "[Example 2, (R)-4-(3,3-dimethyl-6-oxo-2,3,6,7-tetrahydrothieno[2,3-b]pyridine-5-yl)-N-(3-(7-methyl-1H-indazole-5-yl)-1-(4-(1-methylpiperidine-4-yl)piperazine-1-yl)-1-oxopropan-2-yl)piperidine-1-formamide]", "IC50 values / inhibitory activities (in words)": "pM level"}
    ]}
  ]
}
